According to patent US20220023258A1, “METHODS OF TREATING CONDITIONS RELATED TO THE S1P1 RECEPTOR” (Arena Pharmaceuticals, Inc., priority 2018, published 2022):
Structures can show the parent of a compound that is named as a salt.

System: patients with ulcerative colitis
Test: Dose-ranging study in ulcerative colitis: Mayo scores, endoscopic improvement, remission
Type: in vivo, human
Settings: for improvement in 2-component Mayo Score relative to placebo / improvement in Total Mayo Score relative to placebo: Week 12; for proportion of patients achieving clinical remission, defined by the 3-component Mayo Score / improvement in 3-component Partial Mayo Score relative to placebo / patients who achieved endoscopic improvement: week 12
Description: The treatment formulation was composed of immediate-release, hard gelatin capsules containing L-arginine salt of Compound 1. The placebo was composed of hard gelatin capsules containing microcrystalline cellulose. […] The primary objective of this proof-of-concept study was to determine the effect of treatment with the L-arginine salt of Compound 1 in changing 3-component Mayo Clinic score (score ranging from 0 to 9, including stool frequency, rectal bleeding and findings on endoscopy) at 12 weeks. […] ANCOVA model, adjusted for current oral corticosteroid use, prior exposure to TNF-alpha antagonists, and baseline value, was used to estimate changes in Mayo Clinic Score. Mantel-Haenszel method (estimated treatment difference by adjusting current oral corticosteroid use and prior exposure to TNF-alpha antagonists) used to estimate proportion difference for dichotomous parameters. Missing individual Mayo subscores impacting efficacy measures were imputed using multiple imputation methodology with observed case analysis for sensitivity. […] Hierarchical closed testing procedure for primary and secondary endpoints at 0.05 alpha level was used.

O=C(O)C[C@H]1CCc2c1[nH]c1ccc(OCc3ccc(C4CCCC4)c(C(F)(F)F)c3)cc21 [L-arginine salt of Compound 1]
improvement in 2-component Mayo Score relative to placebo (1 mg q.d., p=0.086): 0.39
improvement in Total Mayo Score relative to placebo (1 mg q.d., p=0.128): 0.60
proportion of patients achieving clinical remission, defined by the 3-component Mayo Score (1 mg q.d., p=0.136): 16.0%
improvement in 3-component Partial Mayo Score relative to placebo (1 mg q.d., p=0.146): 0.43
patients who achieved endoscopic improvement (1 mg q.d., p=0.306): 22.5%
Remission defined by the 4-component Total Mayo Score (1 mg q.d., p=0.077): 15.4%
improvement in Total Mayo Score relative to placebo (2 mg q.d., p=0.010): 1.27
proportion of patients achieving clinical remission, defined by the 3-component Mayo Score (2 mg q.d., p<0.001 vs placebo 8.1%): 33.0%
patients who achieved endoscopic improvement (2 mg q.d., p=0.003 vs placebo 17.8%): 41.8%
improvement in 3-component Partial Mayo Score relative to placebo (2 mg q.d., p=0.009): 0.99
improvement in 2-component Mayo Score relative to placebo (dose not printed in sentence (high dose), p=0.002): 0.84
Remission defined by the 4-component Total Mayo Score (dose not printed in sentence (high dose), p=0.004 vs placebo 6.0%): 24.5%
